Experimental data as given in ChEMBL document CHEMBL3880383, “2-oxo-1-pyrrolidine derivative and its pharmaceutical uses” (2004).

Tests used:
Mus musculus = test: Anticonvulsant activity in ip dosed sound susceptible DBA mouse model assessed as protection against audiogenic seizure-induced wild running, clonic and tonic convulsion administered 60 mins prior to induction of audiogenic seizures measured for 30 secs; type: functional
[1] = target: Synaptic vesicle glycoprotein 2A (Rattus norvegicus, UniProt Q02563); test: Displacement of [3H]-2-[4-(3-azidophenyl)-2-oxo-1-pyrrolidinyl]butanamide from SV2A levetiracetam binding site in Sprague-Dawley rat cerebral cortex membranes after 120 mins by liquid scintillation counting method; parameters: species or system Membrane
[2] = Mus musculus, DBA, ip, read-out: ED50

Chain of Synaptic vesicle glycoprotein 2A (Q02563 whole entry): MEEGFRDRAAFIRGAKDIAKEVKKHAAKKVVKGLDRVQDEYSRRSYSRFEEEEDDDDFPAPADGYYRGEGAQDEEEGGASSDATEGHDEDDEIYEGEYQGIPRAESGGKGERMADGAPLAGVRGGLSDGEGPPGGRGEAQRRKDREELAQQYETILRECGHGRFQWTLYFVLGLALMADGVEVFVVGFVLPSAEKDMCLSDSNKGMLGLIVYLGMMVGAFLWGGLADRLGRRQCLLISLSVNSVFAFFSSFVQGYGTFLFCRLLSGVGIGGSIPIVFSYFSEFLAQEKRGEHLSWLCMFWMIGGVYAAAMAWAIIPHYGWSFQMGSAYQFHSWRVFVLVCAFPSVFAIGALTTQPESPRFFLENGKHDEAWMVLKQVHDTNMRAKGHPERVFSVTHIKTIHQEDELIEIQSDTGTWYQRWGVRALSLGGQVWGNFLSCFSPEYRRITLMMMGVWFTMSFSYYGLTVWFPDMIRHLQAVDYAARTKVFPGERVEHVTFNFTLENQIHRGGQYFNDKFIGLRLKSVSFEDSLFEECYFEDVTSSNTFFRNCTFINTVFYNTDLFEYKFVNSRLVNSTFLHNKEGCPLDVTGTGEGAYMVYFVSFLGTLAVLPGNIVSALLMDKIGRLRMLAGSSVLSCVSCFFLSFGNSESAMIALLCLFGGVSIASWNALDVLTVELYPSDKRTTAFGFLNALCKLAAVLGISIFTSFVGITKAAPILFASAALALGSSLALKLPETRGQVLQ

SMILES | ED50 (Mus musculus; [2]) [µmol/kg] | Ki [1] [nM] | ED50 (Mus musculus) [µmol/kg]
CCC(C(N)=O)N1CC(C=C(F)F)CC1=O (stereo not drawn) | 100 | ≤ 1000 | –
CC[C@@H](C(N)=O)N1C[C@@H](C=C(Br)Br)CC1=O | 100 | ≤ 1000 | –
CCCC1CC(=O)N(C(Cc2cscn2)C(N)=O)C1 (stereo not drawn) | – | ≤ 1000 | –
C#CC1CC(=O)N(C(CC)C(N)=O)C1 (stereo not drawn) | 100 | ≤ 1000 | –
CC[C@@H](C(N)=O)N1CC(CC(C)I)CC1=O (stereo partly drawn) | 100 | ≤ 1000 | –
CC[C@@H](C(N)=O)N1C[C@H](C=C(Br)Br)CC1=O | 100 | ≤ 1000 | –
CC[C@@H](C(N)=O)N1CC(CCl)CC1=O (stereo partly drawn) | 100 | ≤ 1000 | –
CCC(C(N)=O)N1CC(C=C(Br)Br)CC1=O (stereo not drawn) | 100 | ≤ 1000 | –
CC[C@@H](C(N)=O)N1CC(c2cccc(Br)c2)CC1=O (stereo partly drawn) | 100 | ≤ 1000 | –
C=C[C@@H]1CC(=O)N([C@@H](CC)C(N)=O)C1 | 100 | ≤ 1000 | –
C=CCC1CC(=O)N([C@@H](CC)C(N)=O)C1 (stereo partly drawn) | 100 | ≤ 1000 | –
CCC[C@H]1CC(=O)N([C@@H](CC)C(N)=O)C1 | 100 | ≤ 1000 | –
CCC[C@@H](C(N)=O)N1C[C@H](CI)CC1=O | 100 | ≤ 1000 | –
CCC(C(N)=O)N1CC(CI)CC1=O (stereo not drawn) | – | ≤ 1000 | –
CCCC1CC(=O)N(C(CC)C(N)=O)C1 (stereo not drawn) | 100 | ≤ 1000 | –
CCCC1CC(=O)N(C(CC2CC2)C(N)=O)C1 (stereo not drawn) | – | ≤ 1000 | –
CCC(C(N)=O)N1CC(c2ccccc2C(F)(F)F)CC1=O (stereo not drawn) | – | ≤ 1000 | –
CC[C@@H](C(N)=O)N1CC(c2cccc(N=[N+]=[N-])c2)CC1=O (stereo partly drawn) | 100 | ≤ 1000 | –
C=C[C@H]1CC(=O)N([C@@H](CC)C(N)=O)C1 | 100 | ≤ 1000 | –
CCCCCC1CC(=O)N(C(CC)C(N)=O)C1 (stereo not drawn) | – | ≤ 1000 | –
CCC(C(N)=O)N1CC(CS(=O)(=O)c2ccccc2)CC1=O (stereo not drawn) | – | ≤ 1000 | –

SMILES | ED50 (Mus musculus; [2]) [µmol/kg] | Ki [1] [nM] | ED50 (Mus musculus) [µmol/kg]
CCCC(CN[C@@H](CC)C(N)=O)CC(=O)OC(C)C (stereo partly drawn) | 100 | – | –
CC[C@@H](C(N)=O)N1C[C@H](C=C(F)F)CC1=O [SELETRACETAM] | 100 | ≤ 1000 | –
CCC(C(N)=O)N1CC(c2cccc(C)c2)CC1=O (stereo not drawn) | 100 | ≤ 1000 | –
CCC(C(N)=O)N1CC(C=C(C)C)CC1=O (stereo not drawn) | 100 | ≤ 1000 | –
CCC(C(N)=O)N1C[C@H](CC(C)(F)F)CC1=O (stereo partly drawn) | 100 | ≤ 1000 | –
CC[C@@H](C(N)=O)N1C[C@H](CI)CC1=O | 100 | ≤ 1000 | –
CCC(C(N)=O)N1CC(CC(F)F)CC1=O (stereo not drawn) | – | ≤ 1000 | –
CCCC1CC(=O)N(C(CCC)C(N)=O)C1 (stereo not drawn) | – | ≤ 1000 | –
CC[C@@H](C(N)=O)N1CC(c2ccc(N=[N+]=[N-])cc2)CC1=O (stereo partly drawn) | 100 | ≤ 1000 | –
CC[C@@H](C(=O)NC)N1C[C@H](CI)CC1=O | 100 | ≤ 1000 | –
CCCC1CC(=O)N(C(C)C(N)=O)C1 (stereo not drawn) | – | ≤ 1000 | –
CCC(C(N)=O)N1CC(c2ccc(Cl)c(Cl)c2)CC1=O (stereo not drawn) | 100 | ≤ 1000 | –
CC[C@@H](C(N)=O)N1CC(CN=C=S)CC1=O (stereo partly drawn) | – | ≤ 1000 | –
CCC(C(N)=O)N1CC(CC(C)C)CC1=O (stereo not drawn) | 100 | ≤ 1000 | –
CCC(C(N)=O)N1CC(c2ccc(Cl)cc2Cl)CC1=O (stereo not drawn) | 100 | ≤ 1000 | –
CC[C@@H](C(N)=O)N1C[C@@H](C=C(F)F)CC1=O | 100 | ≤ 1000 | –
CC[C@@H](C(N)=O)N1CC(c2cccs2)CC1=O (single isomer, unassigned; diastereomer 1) | 100 | – | –
CCC(C(N)=O)N1CC(c2cccnc2)CC1=O (stereo not drawn) | 100 | ≤ 1000 | –
CC[C@@H](C(N)=O)N1CC(c2ccccc2OC)CC1=O (stereo partly drawn) | – | ≤ 1000 | –
CC[C@@H](C(N)=O)N1CC(CO[N+](=O)[O-])CC1=O (stereo partly drawn) | 100 | ≤ 1000 | –
CCCC(CN[C@@H](CC)C(N)=O)CC(=O)OCCC12CC3CC(CC(C3)C1)C2 (stereo partly drawn) | 100 | – | –

SMILES | ED50 (Mus musculus; [2]) [µmol/kg] | Ki [1] [nM] | ED50 (Mus musculus) [µmol/kg]
CC[C@@H](C(N)=O)N1CC(C#CBr)CC1=O (stereo partly drawn) | 100 | ≤ 1000 | –
CCC[C@@H]1CC(=O)N([C@@H](CC)C(N)=O)C1 [BRIVARACETAM] | 100 | ≤ 1000 | –
CC[C@@H](C(N)=O)N1C[C@H](CN=[N+]=[N-])CC1=O | 100 | ≤ 1000 | –
C[C@@H](C(N)=O)N1C[C@H](CI)CC1=O | 100 | ≤ 1000 | –
CC[C@@H](C(N)=O)N1CC(CI)CC1=O (stereo partly drawn) | 100 | ≤ 1000 | –
CC[C@@H](C(N)=O)N1CC(c2cccs2)CC1=O (single isomer, unassigned; diastereomer 2) | – | ≤ 1000 | 100
CC[C@@H](C(N)=O)N1CC(c2cc(Br)cc(Br)c2)CC1=O (stereo partly drawn) | 100 | ≤ 1000 | –
CC[C@@H](C(N)=O)N1CC(CC2CC2)CC1=O (stereo partly drawn) | 100 | ≤ 1000 | –
CC[C@@H](C(N)=O)N1CC(CBr)CC1=O (stereo partly drawn) | 100 | ≤ 1000 | –
CC[C@@H](C(N)=O)N1CC(c2ccc(-c3ccccc3)cc2)CC1=O (stereo partly drawn) | – | ≤ 1000 | –
CCCCC1CC(=O)N(C(CC)C(N)=O)C1 (stereo not drawn) | 100 | ≤ 1000 | –
CC[C@@H](C(N)=O)N1CC(n2cccc2)CC1=O (stereo partly drawn) | 100 | ≤ 1000 | –
CCC(C(N)=O)N1CC(CC2CC2)CC1=O (stereo not drawn) | 100 | ≤ 1000 | –
CC[C@H](C(N)=O)N1CC(C=C(Cl)Cl)CC1=O (stereo partly drawn) | 100 | ≤ 1000 | –
CC[C@@H](C(N)=O)N1CC(Cn2cnnn2)CC1=O (stereo partly drawn) | 100 | ≤ 1000 | –
CC[C@@H](C(N)=O)N1CC(c2cccc(OC)c2)CC1=O (stereo partly drawn) | – | ≤ 1000 | –
CC[C@@H](C(N)=O)N1CC(c2ccsc2)CC1=O (stereo partly drawn) | 100 | ≤ 1000 | –
CCC1CC(=O)N([C@@H](CC)C(N)=O)C1 (stereo partly drawn) | 100 | ≤ 1000 | –
CC[C@@H](C(N)=O)N1CC(CC(C)(C)C)CC1=O (stereo partly drawn) | – | ≤ 1000 | –
CC[C@@H](C(N)=O)N1CC(n2cccc2Br)CC1=O (stereo partly drawn) | 100 | ≤ 1000 | –
CCC(C(N)=O)N1CC(c2nccs2)CC1=O (stereo not drawn) | 100 | ≤ 1000 | –

SMILES | ED50 (Mus musculus; [2]) [µmol/kg] | Ki [1] [nM] | ED50 (Mus musculus) [µmol/kg]
CC[C@@H](C(N)=O)N1CC(COS(=O)(=O)c2ccc(C)cc2)CC1=O (stereo partly drawn) | 100 | ≤ 1000 | –
CC[C@@H](C(N)=O)N1CC(CC(C)=O)CC1=O (stereo partly drawn) | 100 | ≤ 1000 | –
CCC(C(N)=O)N1CC(c2ccc(Cl)cc2)CC1=O (stereo not drawn) | – | ≤ 1000 | –
C=CC1CC(=O)N(C(CC)C(N)=O)C1 (stereo not drawn) | 100 | ≤ 1000 | –
CCC(C(N)=O)N1CC(c2ccccc2F)CC1=O (stereo not drawn) | 100 | ≤ 1000 | –
CC[C@@H](C(N)=O)N1CC(CSC)CC1=O (stereo partly drawn) | 100 | ≤ 1000 | –
CCCC1(C)CC(=O)N([C@@H](CC)C(N)=O)C1 (stereo partly drawn) | 100 | ≤ 1000 | –
CC[C@@H](C(N)=O)N1CC(CCC(F)(F)F)CC1=O (stereo partly drawn) | 100 | ≤ 1000 | –
CCC(C(N)=O)N1CC(/C=C\F)CC1=O (stereo not drawn) | 100 | ≤ 1000 | –
CCCC(CN[C@@H](CC)C(N)=O)CC(=O)OCC (stereo partly drawn) | 100 | – | –
CCCCOC(=O)CC(CCC)CN[C@@H](CC)C(N)=O (stereo partly drawn) | 100 | – | –
CCC(C(N)=O)N1CC(c2ccccc2Br)CC1=O (stereo not drawn) | 100 | ≤ 1000 | –
CC[C@@H](C(N)=O)N1CC(CCc2ccccc2)CC1=O (stereo partly drawn) | – | ≤ 1000 | –
CC[C@@H](C(N)=O)N1CC(CCCc2ccccc2)CC1=O (stereo partly drawn) | 100 | ≤ 1000 | –
CCC(C(N)=O)N1CC(c2cc(C(F)(F)F)cc(C(F)(F)F)c2)CC1=O (stereo not drawn) | – | ≤ 1000 | –
CCC(C(N)=O)N1CC(C#CBr)CC1=O (stereo not drawn) | 100 | ≤ 1000 | –
CC[C@@H](C(N)=O)N1CC(c2ccccc2)CC1=O (stereo partly drawn) | 100 | ≤ 1000 | –
CCC(C(N)=O)N1CC(c2cccc(Cl)c2)CC1=O (stereo not drawn) | 100 | ≤ 1000 | –
C=CCC(C(N)=O)N1CC(CCC)CC1=O (stereo not drawn) | – | ≤ 1000 | –
CCC(C(N)=O)N1CC(c2ccco2)CC1=O (stereo not drawn) | 100 | ≤ 1000 | –
